What was measured:
[1] = system: cocklebur; assay: Test B pre/postemergence cocklebur; format: in vivo, Xanthium strumarium
Outline: (§1)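 Response is a visual 0-to-10 score relative to untreated plants, where 0 means no effect and 10 means complete control, taken twelve to sixteen days after application. Treatments went onto soil at planting and onto foliage of 1- to 4-leaf plants, using a surfactant-containing non-phytotoxic solvent.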

[2] = system: rice; assay: Test B flood test rice; format: in vivo, Oryza sativa
Outline: (§2)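 Read-out is a visual response score from 0 (no effect) to 10 (complete control), assigned by comparison with untreated controls. Treatment was applied at the 2-leaf stage, and plants stayed in the greenhouse for twelve to sixteen days before scoring.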

[3] = system: duck salad; assay: Test B flood test duck salad; format: in vivo, Heteranthera limosa
Outline: as §2

[4] = system: sugar beet; assay: Test B pre/postemergence sugar beet; format: in vivo, Beta vulgaris
Outline: as §1

[5] = system: smallflower flatsedge; assay: Test B flood test smallflower flatsedge; format: in vivo, Cyperus difformis
Outline: as §2

[6] = system: rape; assay: Test B pre/postemergence rape; format: in vivo, Brassica napus
Outline: as §1

[7] = system: wheat; assay: Test B pre/postemergence wheat; format: in vivo, Triticum aestivum
Outline: as §1

[8] = system: blackgrass; assay: Test B pre/postemergence blackgrass; format: in vivo, Alopecurus myosuroides
Outline: as §1

[9] = system: crabgrass; assay: Test B pre/postemergence crabgrass; format: in vivo, Digitaria sanguinalis
Outline: as §1

[10] = system: surinam grass; assay: Test B pre/postemergence surinam grass; format: in vivo, Brachiaria decumbens
Outline: as §1

[11] = system: soybean; assay: Test B pre/postemergence soybean; format: in vivo, Glycine max
Outline: as §1

[12] = system: purple nutsedge; assay: Test B pre/postemergence purple nutsedge; format: in vivo, Cyperus rotundus
Outline: as §1

[13] = system: corn; assay: Test B pre/postemergence corn; format: in vivo, Zea mays
Outline: as §1

[14] = system: bamyardgrass; assay: Test B flood test barnyardgrass; format: in vivo, Echinochloa crus-galli
Outline: as §2

[15] = system: giant foxtail; assay: Test B pre/postemergence giant foxtail; format: in vivo, Setaria faberii
Outline: as §1

[16] = system: pigweed; assay: Test B pre/postemergence pigweed; format: in vivo, Amaranthus retroflexus
Outline: as §1

[17] = Preemergence, Rate 62 g/ha, scale of 0 to 10 where 0 is no effect and 10 is complete control
[18] = Preemergence, Rate 250 g/ha, scale of 0 to 10 where 0 is no effect and 10 is complete control
[19] = Preemergence, Rate 500 g/ha, scale of 0 to 10 where 0 is no effect and 10 is complete control
[20] = Rate 62 g/ha, Postemergence, scale 0 to 10 (0 no effect, 10 complete control)
[21] = Rate 125 g/ha, Postemergence, scale of 0 to 10 where 0 is no effect and 10 is complete control
[22] = Rate 125 g/ha, Preemergence, scale of 0 to 10 where 0 is no effect and 10 is complete control
[23] = Rate 250 g/ha, Postemergence, scale of 0 to 10 where 0 is no effect and 10 is complete control
[24] = Rate 500 g/ha, Postemergence, scale 0 to 10, 0 no effect, 10 complete control
[25] = Rate 62 g/ha, headed Pre-emergence (flood test species), scale 0 to 10 (0 no effect, 10 complete control)
[26] = Rate 125 g/ha, Pre-emergence, flood test species, scale 0 to 10 where 0 is no effect and 10 is complete control
[27] = Rate 250 g/ha, Pre-emergence, flood-test species, scale 0 to 10, 0 is no effect, 10 is complete control
[28] = Rate 500 g/ha, Pre-emergence, flood test species, scale 0 to 10 (0 no effect, 10 complete control)

Compound: COCn1c(=O)on(C(=O)N(c2ccc(F)cc2)C(C)C)c1=O [Compound 293]
- Cocklebur plant response rating [1, 17]: 0
- Cocklebur plant response rating [1, 18]: 0
- Plant response rating, Cocklebur [1, 19]: 0
- Cocklebur plant response rating [1, 20]: 0
- Cocklebur plant response rating [1, 21]: 0
- Cocklebur plant response rating [1, 22]: 0
- Plant response rating, Cocklebur [1, 23]: 0
- Cocklebur plant response rating [1, 24]: 0
- Rice plant response rating [2, 25]: 0
- Rice plant response rating [2, 26]: 0
- Rice plant response rating [2, 27]: 3
- Rice plant response rating [2, 28]: 5
- Ducksalad plant response rating [3, 25]: 0
- Ducksalad plant response rating [3, 26]: 0
- Ducksalad plant response rating [3, 27]: 0
- Ducksalad plant response rating [3, 28]: 0
- Sugarbeets plant response rating [4, 17]: 0
- Sugarbeets plant response rating [4, 18]: 4
- Plant response rating, Sugarbeets [4, 19]: 8
- Sugarbeets plant response rating [4, 20]: 0
- Sugarbeets plant response rating [4, 21]: 0
- Sugarbeets plant response rating [4, 22]: 4
- Plant response rating, Sugarbeets [4, 23]: 3
- S. Flatsedge plant response rating [5, 25]: 0
- S. Flatsedge plant response rating [5, 26]: 0
- S. Flatsedge plant response rating [5, 27]: 0
- S. Flatsedge plant response rating [5, 28]: 0
- Rape plant response rating [6, 17]: 0
- Rape plant response rating [6, 18]: 8
- Plant response rating, Rape [6, 19]: 10
- Rape plant response rating [6, 20]: 0
- Rape plant response rating [6, 21]: 0
- Rape plant response rating [6, 22]: 6
- Plant response rating, Rape [6, 23]: 0
- Wheat plant response rating [7, 17]: 2
- Wheat plant response rating [7, 18]: 8
- Plant response rating, Wheat [7, 19]: 9
- Wheat plant response rating [7, 20]: 2
- Wheat plant response rating [7, 21]: 6
- Wheat plant response rating [7, 22]: 7
- Plant response rating, Wheat [7, 23]: 7
- Blackgrass plant response rating [8, 17]: 7
- Blackgrass plant response rating [8, 18]: 9
- Plant response rating, Blackgrass [8, 19]: 9
- Blackgrass plant response rating [8, 20]: 5
- Blackgrass plant response rating [8, 21]: 9
- Blackgrass plant response rating [8, 22]: 7
- Plant response rating, Blackgrass [8, 23]: 9
- Blackgrass plant response rating [8, 24]: 9
- Crabgrass plant response rating [9, 17]: 1
- Crabgrass plant response rating [9, 18]: 8
- Plant response rating, Crabgrass [9, 19]: 8
- Crabgrass plant response rating [9, 20]: 6
- Crabgrass plant response rating [9, 21]: 8
- Crabgrass plant response rating [9, 22]: 3
- Plant response rating, Crabgrass [9, 23]: 9
- B. signalgrass plant response rating [10, 17]: 2
- B. signalgrass plant response rating [10, 18]: 7
- Plant response rating, B. signalgrass [10, 19]: 9
- B. signalgrass plant response rating [10, 20]: 0
- B. signalgrass plant response rating [10, 21]: 0
- B. signalgrass plant response rating [10, 22]: 3
- Plant response rating, B. signalgrass [10, 23]: 7
- B. signalgrass plant response rating [10, 24]: 7
- Soybean plant response rating [11, 17]: 0
- Soybean plant response rating [11, 18]: 2
- Plant response rating, Soybean [11, 19]: 2
- Soybean plant response rating [11, 20]: 1
- Soybean plant response rating [11, 21]: 2
- Soybean plant response rating [11, 22]: 0
- Plant response rating, Soybean [11, 23]: 2
- Nutsedge plant response rating [12, 17]: 0
- Nutsedge plant response rating [12, 18]: 7
- Nutsedge plant response rating [12, 20]: 0
- Nutsedge plant response rating [12, 21]: 3
- Nutsedge plant response rating [12, 22]: 0
- Plant response rating, Nutsedge [12, 23]: 8
- Corn plant response rating [13, 17]: 0
- Corn plant response rating [13, 18]: 9
- Corn plant response rating [13, 20]: 0
- Corn plant response rating [13, 21]: 0
- Corn plant response rating [13, 22]: 0
- Plant response rating, Corn [13, 23]: 0
- Corn plant response rating [13, 24]: 3
- Barnyardgrass plant response rating [14, 25]: 0
- Barnyardgrass plant response rating [14, 26]: 0
- Barnyardgrass plant response rating [14, 27]: 0
- Barnyardgrass plant response rating [14, 28]: 5
- Giant foxtail plant response rating [15, 17]: 9
- Giant foxtail plant response rating [15, 18]: 9
- Plant response rating, Giant foxtail [15, 19]: 10
- Giant foxtail plant response rating [15, 20]: 5
- Giant foxtail plant response rating [15, 21]: 8
- Giant foxtail plant response rating [15, 22]: 9
- Plant response rating, Giant foxtail [15, 23]: 8
- Redroot pigweed plant response rating [16, 17]: 6
- Redroot pigweed plant response rating [16, 18]: 10
- Plant response rating, Redroot pigweed [16, 19]: 10
- Redroot pigweed plant response rating [16, 20]: 0
- Redroot pigweed plant response rating [16, 21]: 2
- Redroot pigweed plant response rating [16, 22]: 8
- Plant response rating, Redroot pigweed [16, 23]: 2

— US6737383B1, “Herbicidal oxadiazolidines” (priority 1999, dated 2004)
